Where a name gives a salt, the structure may show the parent alone.
Molecular target: T1, mGlyT-1b (Mus musculus, UniProt P28571)
T1 construct: host or cells: Flp-in-CHO
T1 sequence (P28571 1-651 isoform P28571-2): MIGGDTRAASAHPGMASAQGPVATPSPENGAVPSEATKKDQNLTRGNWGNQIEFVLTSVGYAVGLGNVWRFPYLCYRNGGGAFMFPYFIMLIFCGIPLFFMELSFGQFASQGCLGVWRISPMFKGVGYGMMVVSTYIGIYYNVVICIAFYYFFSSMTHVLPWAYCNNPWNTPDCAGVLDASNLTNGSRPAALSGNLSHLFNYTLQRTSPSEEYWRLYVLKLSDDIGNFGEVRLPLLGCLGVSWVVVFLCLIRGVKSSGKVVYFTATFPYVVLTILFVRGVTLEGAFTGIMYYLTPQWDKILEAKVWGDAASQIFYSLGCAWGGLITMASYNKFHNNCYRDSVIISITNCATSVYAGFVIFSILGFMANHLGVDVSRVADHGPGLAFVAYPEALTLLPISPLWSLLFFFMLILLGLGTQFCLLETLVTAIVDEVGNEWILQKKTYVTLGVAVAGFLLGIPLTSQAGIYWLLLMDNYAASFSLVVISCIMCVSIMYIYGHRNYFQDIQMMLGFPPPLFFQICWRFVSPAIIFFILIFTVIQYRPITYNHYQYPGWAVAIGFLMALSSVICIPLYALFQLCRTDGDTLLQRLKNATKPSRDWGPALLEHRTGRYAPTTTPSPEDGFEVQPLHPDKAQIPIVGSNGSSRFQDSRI
Assay: Glycine uptake inhibition assay (mGlyT-1b), [3H]-glycine uptake in transfected Flp-in-CHO cells
Type: cell-based
Conditions: Flp-in-CHO cells transfected with mGlyT-1b cDNA; [3H]-glycine 60 nM and 25 μM non-radioactive glycine; 20 min preincubation at 22° C.; read-out: IC50 (μM) at GlyT-1; Ic50 (hglyt1b)
Outline: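 Flp-in CHO cells stably expressing mouse GlyT-1b were preincubated 20 min at 22 °C with inhibitor in pH 7.4 Hepes-Tris buffer. Uptake was then run with 60 nM [3H]-glycine plus 25 μM unlabeled glycine, with 10 mM glycine defining nonspecific uptake. Cell radioactivity was counted by scintillation to derive IC50.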

SMILES	IC50 [µM]
CS(=O)(=O)c1cncc(-c2ccc([C@@H](O)[C@@H](N)c3ccc(Cl)c(Cl)c3)cc2)c1 (racemic) [Example 82, rac-erythro-2-Amino-2-(3,4-dichloro-phenyl)-1-[4-(5-methanesulfonyl-pyridin-3-yl)-phenyl]-ethanol]	0.047
N[C@@H](c1ccc(Cl)c(Cl)c1)[C@H](O)c1ccc(-c2cncc(F)c2)cc1 (racemic) [Example 83, rac-erythro-2-Amino-2-(3,4-dichloro-phenyl)-1-[4-(5-fluoro-pyridin-3-yl)-phenyl]-ethanol]	0.059
N[C@@H](c1ccc(Cl)c(F)c1)[C@H](O)c1ccc(-c2cccnc2)cc1 (racemic) [Example 84]	0.033
N[C@@H](c1ccc(Cl)c(F)c1)[C@H](O)c1ccc(-c2cncc(F)c2)cc1 (racemic) [Example 85, rac-erythro-2-Amino-2-(4-chloro-3-fluoro-phenyl)-1-[4-(5-fluoro-pyridin-3-yl)-phenyl]-ethanol]	0.095
Cc1cc([C@H](N)[C@H](O)c2ccc(-c3cccnc3)cc2)ccc1Cl (racemic) [Example 86, rac-erythro-2-Amino-2-(4-chloro-3-methyl-phenyl)-1-(4-pyridin-3-yl-phenyl)-ethanol]	0.049
N[C@@H](c1ccc(C(F)(F)F)cc1)[C@H](O)c1ccc(-c2cccnc2)cc1 (racemic) [Example 88, rac-erythro-2-Amino-1-(4-pyridin-3-yl-phenyl)-2-(4-trifluoromethyl-phenyl)-ethanol]	0.255
CN(C)c1cccc(-c2ccc([C@@H](O)[C@@H](N)c3ccc(Cl)c(Cl)c3)cc2)c1 (racemic) [Example 89, rac-erythro-2-Amino-2-(3,4-dichloro-phenyl)-1-(3′-dimethylamino-biphenyl-4-yl)-ethanol]	0.305
Cc1ccc([C@H](N)[C@H](O)c2ccc(-c3cccnc3)cc2)cc1F (racemic) [Example 91, rac-erythro-2-Amino-2-(3-fluoro-4-methyl-phenyl)-1-(4-pyridin-3-yl-phenyl)-ethanol]	0.073
N[C@@H](c1ccc(Cl)cc1)[C@H](O)c1ccc(OCC(F)(F)C(F)(F)F)cc1F (racemic) [Example 101, rac-erythro-2-Amino-2-(4-chloro-phenyl)-1-[2-fluoro-4-(2,2,3,3,3-pentafluoro-propoxy)-phenyl]-ethanol]	0.334
CC(Oc1ccc([C@@H](O)[C@@H](N)c2ccc(Cl)cc2)cc1)C(F)(F)F (mixture of isomers) [Example 102, rac-erythro-2-Amino-2-(4-chloro-phenyl)-1-[4-(2,2,2-trifluoro-1-methyl-ethoxy)-phenyl]-ethanol]	0.384
CS(=O)(=O)c1cccc(-c2ccc([C@@H](O)[C@@H](N)c3ccc(Cl)c(Cl)c3)c(F)c2)c1 (single isomer, unassigned) [Example 6, (1R,2S or 1S,2R)-2-Amino-2-(3,4-dichloro-phenyl)-1-(3-fluoro-3′-methanesulfonyl-biphenyl-4-yl)-ethanol hydrochloride]	0.012
N[C@@H](c1ccc(Cl)c(Cl)c1)[C@H](O)c1ccc(-c2cncc(F)c2)cc1 (single isomer, unassigned) [Example 8, (1R,2S or 1S,2R)-2-Amino-2-(3,4-dichloro-phenyl)-1-[4-(5-fluoro-pyridin-3-yl)-phenyl]-ethanol trifluoroacetate]	0.059
N[C@@H](c1ccc(Cl)c(Cl)c1)[C@H](O)c1ccc(OC2CCOCC2)cc1 (single isomer, unassigned) [Example 41, (1R,2S or 1S,2R)-[2-Amino-2-(3,4-dichloro-phenyl)-1-[4-(tetrahydro-pyran-4-yloxy)-phenyl]-ethanol]	0.021

Second part, the compound after the results:

IC50 [µM]	SMILES
0.084	Cc1ccc([C@H](N)[C@H](O)c2ccc(-c3cccnc3)cc2)cc1Cl (racemic) [Example 92, rac-erythro-2-Amino-2-(3-chloro-4-methyl-phenyl)-1-(4-pyridin-3-yl-phenyl)-ethanol]
0.094	Cc1ccc([C@H](N)[C@H](O)c2ccc(-c3cncc(F)c3)cc2)cc1Cl (racemic) [Example 93, rac-erythro-2-Amino-2-(3-chloro-4-methyl-phenyl)-1-[4-(5-fluoro-pyridin-3-yl)-phenyl]-ethanol]
0.104	Cc1ccc([C@H](N)[C@H](O)c2ccc(-c3cncc(F)c3)cc2)cc1F (racemic) [Example 94, rac-erythro-2-Amino-2-(3-fluoro-4-methyl-phenyl)-1-[4-(5-fluoro-pyridin-3-yl)-phenyl]-ethanol]
0.158	N[C@@H](c1ccc(C(F)(F)F)c(F)c1)[C@H](O)c1ccc(-c2cccnc2)cc1 (racemic) [Example 95, rac-erythro-2-Amino-2-(3-fluoro-4-trifluoromethyl-phenyl)-1-(4-pyridin-3-yl-phenyl)-ethanol]
0.733	N[C@@H](c1ccc(C(F)(F)F)c(F)c1)[C@H](O)c1ccc(-c2cncc(F)c2)cc1 (racemic) [Example 96, rac-erythro-2-Amino-1-[4-(5-fluoro-pyridin-3-yl)-phenyl]-2-(3-fluoro-4-trifluoromethyl-phenyl)-ethanol]
0.267	N[C@@H](c1ccc(Cl)cc1F)[C@H](O)c1ccc(-c2cccnc2)cc1 (racemic) [Example 97, rac-erythro-2-Amino-2-(4-chloro-2-fluoro-phenyl)-1-(4-pyridin-3-yl-phenyl)-ethanol]
0.388	CO[C@H](c1ccc(-c2cccnc2)cc1)[C@@H](N)c1ccc(Cl)c(Cl)c1 (racemic) [Example 98, rac-erythro-1-(3,4-Dichloro-phenyl)-2-methoxy-2-(4-pyridin-3-yl-phenyl)-ethylamine dihydrochloride]
0.285	CCO[C@H](c1ccc(-c2cncc(F)c2)cc1)[C@@H](N)c1ccc(Cl)c(Cl)c1 (racemic) [Example 99, rac-erythro-[1-(3,4-Dichloro-phenyl)-2-ethoxy-2-[4-(5-fluoro-pyridin-3-yl)-phenyl]-ethylamine trifluoroacetate]
0.323	N[C@@H](c1ccc(Cl)c(Cl)c1)[C@H](O)c1ccc(Oc2ccccc2)cc1 (racemic) [Example 100, rac-erythro-2-Amino-2-(3,4-dichloro-phenyl)-1-(4-phenoxy-phenyl)-ethanol]
0.412	N[C@@H](c1ccc(Cl)c(Cl)c1)[C@H](O)c1ccc(-c2cccc([N+](=O)[O-])c2)cc1 (racemic) [Example 103, rac-erythro-2-Amino-2-(3,4-dichloro-phenyl)-1-(3′-nitro-biphenyl-4-yl)-ethanol]
0.056	NC(=O)c1cccc(-c2ccc([C@@H](O)[C@@H](N)c3ccc(Cl)c(Cl)c3)cc2)c1 (racemic) [Example 104, rac-erythro-4′-[2-Amino-2-(3,4-dichloro-phenyl)-1-hydroxy-ethyl]-biphenyl-3-carboxylic acid amide]
0.567	CC(C)Oc1ccc(F)c(-c2ccc([C@@H](O)[C@@H](N)c3ccc(Cl)c(Cl)c3)cc2)c1 (racemic) [Example 105, rac-erythro-2-Amino-2-(3,4-dichloro-phenyl)-1-(2′-fluoro-5′-isopropoxy-biphenyl-4-yl)-ethanol]
0.851	CC(C)Oc1cccc(-c2ccc([C@@H](O)[C@@H](N)c3ccc(Cl)c(Cl)c3)cc2)c1 (racemic) [Example 106, rac-erythro-2-Amino-2-(3,4-dichloro-phenyl)-1-(3′-isopropoxy-biphenyl-4-yl)-ethanol]
